Residues, ends and D or L forms follow the SMILES beside them. *: point of attachment. FITC = O=C1OC2(c3ccc(O)cc3Oc3cc(O)ccc32)c2ccc(NC(=S)*)cc21

The assay concerns the target T1, Impα(70–529)(W184R/W231R) (Mus musculus, UniProt P52293, W184R/W231R).
T1 construct: His tag; made in house; host or cells: E. coli BL21(DE3), pET30
As to the kind of experiment: Fluorescence polarization titration of FITC-labeled XRCC1 NLS peptides with major-site mutant Impα(70–529)(W184R/W231R). It counts as binding, murine. The note with it: relative to wild-type Impα(70–529). In general terms: Fluorescence polarisation rises when a labelled molecule tumbles more slowly, as on binding a larger partner.

Description: A His-tagged murine Importin α protein with the Importin β binding domain (IBB) deleted, which is identical to Impα(70–529) studied by Fontes et al.[30], was expressed in E. coli. […] The major binding pocket double mutant W184R/W231R was created using a Quikchange site-directed mutagenesis kit (Agilent).
Protein concentrations were determined by the Edelhoch procedure[59].
Apparent peptide dissociation constants were determined based on fluorescence polarization measurements using FITC-labeled peptides. Impα(70–529) was exchanged into FP buffer (20 mM Tris, pH 7.7, 125 mM NaCl, 1 mM EDTA, 2 mM tris(2-carboxyethyl)phosphine, 5% sucrose, 10 mM NaN3). […] 50 μL volumes of the binding reactions were pipetted into wells of a 96-well black flat bottomed plate and fluorescence polarization was read at room temperature with the POLARstar Omega microplate reader (BMG Labtech) using excitation at 485 nm and emission at 520 nm. […] The fluorescence polarization values generated by the experiments are arbitrary, so for easy comparisons among samples, the data were normalized to a 0–100 scale after curve-fitting. […]
Where Ycalc represents the fluorescence polarization value that is generated by the model. […]
The FITC tags were selected in an attempt to minimize possible non-specific interactions of the fluorescein with the Impα(70–529). […] Concentrations of unlabeled peptides were determined by UV absorbance[62].

Regarding `CC(C)C[C@H](NC(=O)[C@H](CCCCN)NC(=O)[C@@H]1CCCN1C(=O)[C@H](CCCNC(=N)N)NC(=O)[C@H](CCCCN)NC(=O)[C@@H]1CCCN1C(=O)[C@@H](NC(=O)[C@@H](N)CO)C(C)C)C(=O)N1CCC[C@H]1C(=O)NCC(=O)N[C@@H](CCCCNC(=S)Nc1ccc2c(c1)C(=O)OC21c2ccc(O)cc2Oc2cc(O)ccc21)C(=O)O` [Peptide M2] (H-SVPKRPKLPGK(FITC)-OH; N-terminus and C-terminus assumed), the “binding affinity to Impα(70–529)(W184R/W231R), in words” value is “interacts only weakly”.

As for `CC(C)C[C@H](NC(=O)[C@H](CCCCN)NC(=O)[C@H](CCCNC(=N)N)NC(=O)[C@H](CCCCN)NC(=O)CNC(=O)CNC(=S)Nc1ccc2c(c1)C(=O)OC21c2ccc(O)cc2Oc2cc(O)ccc21)C(=O)O` [Peptide M1] ({FITC}-GGKRKL-OH; C-terminus assumed), the “binding affinity to Impα(70–529)(W184R/W231R), in words” value is reported as “essentially unaffected”.

The values above are taken from publication PMC4548243, “Nuclear Localization of the DNA Repair Scaffold XRCC1: Uncovering the Functional Role of a Bipartite NLS” (Scientific Reports, 2015).
